Target: T1, Acetylcholinesterase (Mus musculus, UniProt P21836)
T1 sequence (P21836 whole entry): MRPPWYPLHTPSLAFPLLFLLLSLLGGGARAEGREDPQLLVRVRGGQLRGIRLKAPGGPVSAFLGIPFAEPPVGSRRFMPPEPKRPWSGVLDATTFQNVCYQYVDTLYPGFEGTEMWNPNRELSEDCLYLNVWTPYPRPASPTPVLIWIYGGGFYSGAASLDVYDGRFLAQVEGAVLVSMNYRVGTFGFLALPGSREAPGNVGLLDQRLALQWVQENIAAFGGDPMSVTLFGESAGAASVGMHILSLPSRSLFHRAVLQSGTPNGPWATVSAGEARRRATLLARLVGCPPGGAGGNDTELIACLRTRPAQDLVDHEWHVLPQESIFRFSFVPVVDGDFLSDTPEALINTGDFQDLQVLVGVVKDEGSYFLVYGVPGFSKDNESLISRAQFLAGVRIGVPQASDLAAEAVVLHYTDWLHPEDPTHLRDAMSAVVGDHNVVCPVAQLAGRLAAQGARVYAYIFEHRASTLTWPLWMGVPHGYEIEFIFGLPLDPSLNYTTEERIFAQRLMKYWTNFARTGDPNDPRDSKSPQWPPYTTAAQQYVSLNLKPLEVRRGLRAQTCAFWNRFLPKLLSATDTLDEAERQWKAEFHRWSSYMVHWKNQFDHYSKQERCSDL
Assay: AChE Assay
Conditions: pH 7.6; 20 °C
Method: The inactivation of AChEs was determined using a colorimetric assay [Ellman et al., Biochem. Pharmacol., 7:88-95]. […] DTNB solution and a solution of AChE yielding a 0.1 Abs unit/min rate in PBS (2.80 mL; pH 7.6) were placed in a cuvette at 20°C. To this solution was added either: (a) 10 μL of ACN as the control, or (b) 10 μL of ligand solution (10 mM in ACN). […] The final concentrations of the reactants during enzyme assay were: 0.33 mM DTNB, 0.59 mM ATCh-I, 0.58 mM NaHCO3, and 0.05 mM inhibitor.

Compound | IC50 [nM]
C#CCNS(=O)(=O)c1ccc(-c2c3ccc(=[N+](CC)CC)cc-3oc3cc(N(CC)CC)ccc23)c(S(=O)(=O)[O-])c1 [Lissamine propargyl sulfonamide (6)] | 50
C#CCNS(=O)(=O)c1ccc(C2=c3cc4c5c(c3Oc3c2cc2c6c3CCCN6CCC2)CCC[N+]=5CCC4)c(S(=O)(=O)[O-])c1 [Texas Red propargyl sulfonamide (7)] | 700

— BindingDB's records for doi:10.3109/14756360903027816 (The University of Montana, 2010)
